Where “and” joins values, the source holds several entries; their conditions need not be identical. Equal entries are not always repeated. Where two headings read alike, the source gives them in different places. Starred links: 1 amine or outer side, 2 acyl side, 3 side chain; linkers in the order of their positions; H or OH if unused. Non-standard residues stand in square brackets, D forms with d. Residues, ends and D or L forms follow the SMILES beside them. X1 = CCCCC[C@H](O[*:1])C(=O)[*:2]; Ahp(2) = CCCCC[C@H](N)C(=O)O; dNMeA = CN[C@H](C)C(=O)O
Experiments:
[1] = PAMPA, cited from earlier work; for LogPapp: ratio-based method, series 2 macrocycles, previously reported, ref Thorpe et al., Chem. Sci. 2024, 15, 14977
[2] = PAMPA, permeability assay across an artificial membrane; conditions: increase: difference between percent diffusion of macrocycle vs linear counterpart
[3] = PAMPA, 500 uM
[4] = in vitro; conditions: PAMPA, Papp
[5] = test system: PAMPA; conditions: initial concentration 500 uM, UV detection
[6] = test system: PAMPA; conditions: Well 3 / [acc]; Well 3; initial concentration 500 uM; UV detection
[7] = test system: PAMPA
[8] = test system: PAMPA; conditions: UV detection
[9] = test system: PAMPA; conditions: initial concentration 500 uM
[10] = test system: PAMPA; conditions: calculated using Supplement Equation 1, UV detection
[11] = test system: Caco‐2; assay: Experimental Caco‐2 permeability; format: in vitro ADME; conditions: Caco‐2 experiments, series 2
Method: Johnston et al. Supporting information
5.1 Comparison of Experimental Caco‐2 Papp to Calculated LogP
Experimental Caco‐2 vs. Calculated Permeabilities fo r Series 2
*C2.3 was not detected in Caco‐2 experiments
VI. LC/MS and ELSD Traces
In all cases, the large peak near the beginning of the run (R.T. 2‐6 minutes), is the DMSO solvent front.
(also on this page, place not known: 00 . 511 . 522 . 533 . 5 Caco2 Papp (x 10‐6 cm/s) Experimental for)

CCCCC[C@@H]1NC(=O)[C@@H](C)N(C)C(=O)[C@H](CCCCC)OC(=O)[C@@H](C)N(C)C(=O)[C@H](CCCCC)OC(=O)[C@@H](C)N(C)C(=O)[C@H](CCCCC)OC(=O)[C@@H](C)N(C)C1=O [Compound C2.1] (cyclo([Ahp(2)][dNMeA][X1][dNMeA][X1][dNMeA][X1][dNMeA]))
LogPapp [1]: -4.91 ± 0.09
Δ % diffusion [2]: ↑19%

CCCCC[C@@H]1NC(=O)[C@@H](C)N(C)C(=O)[C@H](CCCCC)NC(=O)[C@@H](C)N(C)C(=O)[C@H](CCCCC)NC(=O)[C@@H](C)N(C)C(=O)[C@H](CCCCC)NC(=O)[C@@H](C)N(C)C1=O [Compound C2.5] (cyclo([Ahp(2)][dNMeA][Ahp(2)][dNMeA][Ahp(2)][dNMeA][Ahp(2)][dNMeA]))
LogPapp [1]: -5.31 ± 0.04
Δ % diffusion [3]: ↑6%

CCCCC[C@@H]1NC(=O)[C@@H](C)N(C)C(=O)[C@H](CCCCC)OC(=O)[C@@H](C)N(C)C(=O)[C@H](CCCCC)OC(=O)[C@@H](C)N(C)C(=O)[C@H](CCCCC)NC(=O)[C@@H](C)N(C)C1=O [Compound C2.2] (cyclo([Ahp(2)][dNMeA][Ahp(2)][dNMeA][X1][dNMeA][X1][dNMeA]))
LogPapp [1]: -5.05 ± 0.03
Δ % diffusion [2]: ↑17%

CCCCC[C@@H]1NC(=O)[C@@H](C)N(C)C(=O)[C@H](CCCCC)NC(=O)[C@@H](C)N(C)C(=O)[C@H](CCCCC)OC(=O)[C@@H](C)N(C)C(=O)[C@H](CCCCC)NC(=O)[C@@H](C)N(C)C1=O [Compound C2.4] (cyclo([Ahp(2)][dNMeA][Ahp(2)][dNMeA][Ahp(2)][dNMeA][X1][dNMeA]))
LogPapp [1]: -5.33 ± 0.07
Δ % diffusion [2]: ↑7%

CCCCC[C@@H]1OC(=O)[C@@H](C)N(C)C1=O [Compound C1.1]
Papp at 500 uM [4]: 14.6 ± 2.38 ×10⁻⁶ cm/s
Papp at 500 uM ([4]; Ave): 14.1 ×10⁻⁶ cm/s
donor concentration after incubation ([5]; Well 1 / [donor], Well 1): 259 µM and 253 µM
donor concentration after incubation ([5]; Well 2 / [donor], Well 2): 262 µM and 271 µM
donor concentration after incubation ([5]; Well 3 / [donor], Well 3): 267 µM and 276 µM
donor concentration after incubation ([5]; Well 4 / [donor], Well 4): 264 µM and 266 µM
donor concentration after incubation ([5]; Well 5 / [donor], Well 5): 250 µM and 261 µM
acceptor concentration after incubation [6]: 193 µM
Papp ([7]; Papp (x 10^-6 cm/s) – ELSD Detection / [row 1], ELSD Detection): 14.3 ×10⁻⁶ cm/s
Papp ([7]; Papp (x 10^-6 cm/s) – ELSD Detection / [row 2], ELSD Detection): 13.6 ×10⁻⁶ cm/s
Papp ([7]; Papp (x 10^-6 cm/s) – ELSD Detection / [row 3], ELSD Detection): 13.9 ×10⁻⁶ cm/s
Papp ([7]; Papp (x 10^-6 cm/s) – ELSD Detection / [row 4], ELSD Detection): 15.4 ×10⁻⁶ cm/s
Papp ([7]; Papp (x 10^-6 cm/s) – ELSD Detection / [row 5], ELSD Detection): 15 ×10⁻⁶ cm/s
Papp ([7]; Papp (x 10^-6 cm/s) – ELSD Detection / [row 6], ELSD Detection): 11.7 ×10⁻⁶ cm/s
Papp ([7]; Papp (x 10^-6 cm/s) – ELSD Detection / [row 7], ELSD Detection): 14.1 ×10⁻⁶ cm/s
Papp ([7]; Papp (x 10^-6 cm/s) – ELSD Detection / [row 8], ELSD Detection): 15 ×10⁻⁶ cm/s
Papp ([7]; Papp (x 10^-6 cm/s) – ELSD Detection / [row 9], ELSD Detection): 14.8 ×10⁻⁶ cm/s
Papp ([7]; Papp (x 10^-6 cm/s) – ELSD Detection / [row 10], ELSD Detection): 13.6 ×10⁻⁶ cm/s
Papp ([7]; Papp (x 10^-6 cm/s) – UV Detection / [row 1], UV Detection): 15.1 ×10⁻⁶ cm/s
Papp ([7]; Papp (x 10^-6 cm/s) – UV Detection / [row 2], UV Detection): 14.2 ×10⁻⁶ cm/s
Papp ([7]; Papp (x 10^-6 cm/s) – UV Detection / [row 3], UV Detection): 12.7 ×10⁻⁶ cm/s
Papp ([7]; Papp (x 10^-6 cm/s) – UV Detection / [row 4], UV Detection): 18 ×10⁻⁶ cm/s
Papp ([7]; Papp (x 10^-6 cm/s) – UV Detection / [row 5], UV Detection): 19 ×10⁻⁶ cm/s
Papp ([7]; Papp (x 10^-6 cm/s) – UV Detection / [row 6], UV Detection): 13.8 ×10⁻⁶ cm/s
Papp ([7]; Papp (x 10^-6 cm/s) – UV Detection / [row 7], UV Detection): 11.2 ×10⁻⁶ cm/s
Papp ([7]; Papp (x 10^-6 cm/s) – UV Detection / [row 8], UV Detection): 12.7 ×10⁻⁶ cm/s
Papp ([7]; Papp (x 10^-6 cm/s) – UV Detection / [row 9], UV Detection): 14.3 ×10⁻⁶ cm/s
Papp ([7]; Papp (x 10^-6 cm/s) – UV Detection / [row 10], UV Detection): 15 ×10⁻⁶ cm/s
% recovery ([8]; Well 1 / %R, Well 1): 93% and 89%
% recovery ([8]; Well 2 / %R, Well 2): 93% and 90%
% recovery ([8]; Well 3 / %R, Well 3): 92% and 95%
% recovery ([8]; Well 4 / %R, Well 4): 99% and 95%
% recovery ([8]; Well 5 / %R, Well 5): 99%
Δ % diffusion [3]: ↑22%
Acceptor Concentration ([9]; Acceptor Concentration (uM) – ELSD Detection / [row 1], ELSD Detection): 225 µM
Acceptor Concentration ([9]; Acceptor Concentration (uM) – ELSD Detection / [row 2], ELSD Detection): 205 µM
Acceptor Concentration ([9]; Acceptor Concentration (uM) – ELSD Detection / [row 3], ELSD Detection): 212 µM
Acceptor Concentration ([9]; Acceptor Concentration (uM) – ELSD Detection / [row 4], ELSD Detection): 216 µM
Acceptor Concentration ([9]; Acceptor Concentration (uM) – ELSD Detection / [row 5], ELSD Detection): 207 µM
Acceptor Concentration ([9]; Acceptor Concentration (uM) – ELSD Detection / [row 6], ELSD Detection): 206 µM
Acceptor Concentration ([9]; Acceptor Concentration (uM) – ELSD Detection / [row 7], ELSD Detection): 216 µM
Acceptor Concentration ([9]; Acceptor Concentration (uM) – ELSD Detection / [row 8], ELSD Detection): 218 µM
Acceptor Concentration ([9]; Acceptor Concentration (uM) – ELSD Detection / [row 9], ELSD Detection): 208 µM
Acceptor Concentration ([9]; Acceptor Concentration (uM) – ELSD Detection / [row 10], ELSD Detection): 202 µM
Acceptor Concentration ([9]; Acceptor Concentration (uM) – UV Detection / [row 1], UV Detection): 208 µM
Acceptor Concentration ([9]; Acceptor Concentration (uM) – UV Detection / [row 2], UV Detection): 204 µM
Acceptor Concentration ([9]; Acceptor Concentration (uM) – UV Detection / [row 3], UV Detection): 193 µM
Acceptor Concentration ([9]; Acceptor Concentration (uM) – UV Detection / [row 4], UV Detection): 231 µM
Acceptor Concentration ([9]; Acceptor Concentration (uM) – UV Detection / [row 5], UV Detection): 245 µM
Acceptor Concentration ([9]; Acceptor Concentration (uM) – UV Detection / [row 6], UV Detection): 193 µM
Acceptor Concentration ([9]; Acceptor Concentration (uM) – UV Detection / [row 7], UV Detection): 178 µM
Acceptor Concentration ([9]; Acceptor Concentration (uM) – UV Detection / [row 8], UV Detection): 199 µM
Acceptor Concentration ([9]; Acceptor Concentration (uM) – UV Detection / [row 9], UV Detection): 208 µM
Acceptor Concentration ([9]; Acceptor Concentration (uM) – UV Detection / [row 10], UV Detection): 209 µM
%T ([10]; Well 1 / %T, Well 1): 0.91% and 0.93%
%T ([10]; Well 2 / %T, Well 2): 0.86% and 0.92%
%T ([10]; Well 3 / %T, Well 3): 0.89%
%T ([10]; Well 4 / %T, Well 4): 0.92% and 0.96%
%T ([10]; Well 5 / %T, Well 5): 0.93% and 0.99%

CCCCC[C@@H]1NC(=O)[C@@H](C)N(C)C(=O)[C@H](CCCCC)OC(=O)[C@@H](C)N(C)C(=O)[C@H](CCCCC)NC(=O)[C@@H](C)N(C)C(=O)[C@H](CCCCC)OC(=O)[C@@H](C)N(C)C1=O [Compound C2.3] (cyclo([Ahp(2)][dNMeA][X1][dNMeA][Ahp(2)][dNMeA][X1][dNMeA]))
Experimental Caco‐2 Papp [11]: not detected
LogPapp [1]: -5.23 ± 0.04
Δ % diffusion [2]: ↑10%

CC(C)NC[C@H](O)COc1cccc2ccccc12 [(S)‐Propranolol, reference compound]
Literature Papp ([1]; ref Schmidt, D., Lynch, J. 2003, Millipore): 10.0 x 10‐6

From PMC11995216, “End-to-End Backbone Cyclization Enhances Passive Permeability of bRo5 Oligomeric Depsipeptides with Nonlinear Size Dependence” (ACS Medicinal Chemistry Letters, 2025)
